Data reported in patent publication US8580776B2, “Compositions and methods for treating neurodegenerating diseases” (The Board of Trustees of the University of Illinois, priority 2007, dated 2013).
“Also recorded” adds a separate entry of the source.

Experiments:
[1] = system: primary microglia; assay: Microglial phagocytosis of FITC-labeled Aβ1-42 (FACS); type: cell-based, mouse; settings: 10 nM to 10 μM, 4 hr, FITC-Aβ1-42 150 μM
Experimental: The ability of NA to modulate Aβ phagocytosis, another means by which amyloid plaque burden is regulated, was tested. Primary microglia were incubated with indicated concentrations of NA (FIG. 5A) or the β-AR agonist isoproterenol (FIG. 5B), in the presence of FITC-labeled Aβ1-42 (150 μM). After 4 hr, intracellular levels of Aβ were determined as described below.
Primary murine microglial cells were generated at P1 according to standard protocols. Briefly, frontal cortices of one day old C57BL6 mice were used to prepare mixed glial cultures in T75 cm^2 flasks in DMEM containing 10% FCS and antibiotics (100 IU/mL of penicillin and 100 ug/mL of streptomycin; Sigma), and incubated at 37° C. in a humidified atmosphere containing 5% CO2. Microglia were detached from the astrocyte monolayer by gentle shaking 11-13 days after the dissection, and cultures were 95-98% Mac1 positive.
FACS analysis was used to quantify microglial phagocytosis of Aβ1-42. […] Fluorescent signals due to cell adherent Aβ were eliminated by resuspending an aliquot of cells in an equal volume of 1 mg trypan blue/mL (Merck, Darmstadt, Germany) acetate buffer to quench extracellular fluorescence. The mean fluorescence intensity (MFI) was measured on a FACScan (Becton Dickinson, Mountain View, Calif.) equipped with an argon-ion laser (excitation wavelength at 488 nm, laser power 300 mW) and a band pass filter of 530 nm. […]

[2] = system: EAE mice; assay: L-DOPS, Atomoxetine and combination in EAE mice (Example 13); type: in vivo; settings: from day 17 after booster MOG, tri-weekly, L-DOPS 400 mg/kg s.c. plus 125 mg/kg bensazeride i.p., Atomoxetine 20 mg/kg
Excerpt: (§1) To assess disease severity, clinical signs were scored as follows: 0 indicated no clinical signs, 1 indicated a limp tail, 2 indicated an impaired righting of the animal, 3 indicated paresis of one hind limb, 4 indicated paresis of two hind limbs, and 5 indicated the death of the animal.
To test whether increasing NA derived from the NA precursor L-DOPS in combination with a NA reuptake inhibitor could provide benefit in EAE, C57B16 mice were immunized with MOG35-55 peptide using standard procedures as described in Example 9.

[3] = system: EAE mice; assay: L-DOPS treatment of EAE mice (Example 10); type: in vivo
Experimental: To test whether increased NA derived from the NA precursor L-DOPS could provide benefits in EAE, C57B16 mice were immunized with MOG35-55 peptide using standard procedures. At day 29 (FIG. 11A, arrow) after the booster MOG, 6 mice received daily injections of L-DOPS (using an intermediate dose of 200 mg/kg s.c.; plus 125 mg/kg bensazeride i.p. to block peripheral conversion to NA); control mice received saline. In the saline group, 4/6 mice were ill on day 29, and by day 36 all 6 were ill (FIG. 11A); the average clinical score increased from 1.3±0.4 (mean±se) on day 29 to 2.3±0.2 on day 37 (FIG. 11B). […] During treatment, scores of 2 of the 4 mice improved, and the average score decreased from 1.5±0.5 on day 29 to 1.2±0.4 on day 38.
as §1

[4] = system: mouse neuronal N2A cells; assay: NEP activity in N2A cells incubated with NA; type: cell-based; settings: N2A cells incubated with NA for 24 hr
Experimental: Comparative real time RT-PCR (or quantitative PCR, QPCR) was used to measure mRNA levels of the Aβ degrading enzymes neprilysin (Nep) and insulin degrading enzyme (IDE) in brain samples from vehicle and DSP4 treated mice (FIG. 4A). Neprilysin activity in brain extracts was assayed by monitoring proteolysis of a fluorescent substrate (FIG. 4B). To assess the effects of dose, mouse neuronal N2A cells were incubated with increasing does of NA for 24 hr after which NEP activity was measured (FIG. 4D, data is mean±sd and is from n=3 samples).
In the results shown in FIG. 4D, mouse neuronal N2A cells were incubated with NA for 24 hr after which NEP activity was measured. Data is mean±sd and is from n=3 samples.

[5] = system: BMP2; assay: QPCR of BMP2 mRNA in primary astrocytes; type: cell-based; settings: 100 μM NA, 24 hr
Excerpt: (§2) As shown in FIGS. 12C and 12D, BMP2 and BMP4 mRNA levels were decreased in astrocytes treated with NA. Data is mean±sd of n=2-3 experiments, and normalized to values for β-tubulin measured in the same samples.

[6] = system: BMP4; assay: QPCR of BMP4 mRNA in primary astrocytes; type: cell-based
Experimental: as §2
(§3) Further studies were carried out in which primary astrocytes were treated with 30 μM NA for 24 hours then mRNA levels of bone morphogenic proteins BMP2 and BMP4, Noggin, Gremlin, Follistatin and BAMBI were measured by QPCR (FIG. 16A). The results confirmed that BMP4 mRNA levels were decreased, whereas the Noggin mRNA levels were increased, in NA treated primary astrocytes (FIG. 16A).

[7] = system: primary neurons; assay: Aβ-induced neuronal damage in primary neurons (LDH release, FJ staining); type: cell-based; settings: LDH release and FJ staining
Experimental: The levels of neuronal damage, using LDH release as a neuronal damage marker, were measured as a percentage of control. C: control; Aβ: primary neurons treated with Aβ; Aβ+NA: primary neurons treated Aβ and NA; and Aβ+dbcAMP: primary neurons treated with Aβ and dbcAMP. […] The staining intensity was quantified as a percentage of control as illustrated in the graph in FIG. 9B.

[8] = system: P1 OPCs; assay: QPCR of myelin genes in P1 OPCs treated with NA; type: cell-based; settings: NA versus saline
Experimental: Additional studies were carried out in which QPCR analysis was performed for BMPs, BMP antagonists and myelin genes on P1 OPCs treated with saline or NA. The QPCR condition and primers are as described in Example 3. For QPCR experiments, RNA levels were calculated from QPCR take-off points, normalized for RNA values obtained for GDH; the average value for the vehicle treated RNA levels was set to 1.0. Comparisons were made using unpaired T-test, and P values <0.05 were considered to be significant. (FIGS. 15A and 15B).

[9] = system: oligodendrocyte progenitor cells (OPCs); assay: Oligosphere / OPC maturation by immunostaining; type: cell-based, mouse
Experimental: Initial studies were carried out to identify treatments that influence OLG maturation using primary oligodendrocyte progenitor cells (OPCs) from E13 mouse pups. The cells were isolated as E13 neurospheres, and were shifted to OLG commitment (Oligospheres) by culture in PDGFα and bFGF. E13 Oligospheres were cultured on polylysine coated slides in media (containing bFGF and PDGFα) in the presence or absence of 25 μM NA. After 2 days the cells were fixed and stained with antibody to MBP (FIGS. 12A and 12B).
Further studies were carried out in which the oligospheres were cultured on polylysine coated slides in media (containing bFGF and PDGFα) in the presence or absence of 20 μM NA. After 24 hours the cells were fixed and stained with antibodies for PDGFRa, Oligodendrocyte Marker O4 and PLP (FIGS. 13 and 14).

[10] = system: Noggin; assay: Noggin mRNA (QPCR) and protein staining in primary astrocytes; type: cell-based
Experimental: as §3

CC(C)NCC(O)c1ccc(O)c(O)c1 (stereo not shown) [isoproterenol]
accumulation of fluorescently tagged Aβ1-42 (intracellular Aβ uptake) [1]: dose dependently increased

CNCC[C@@H](Oc1ccccc1C)c1ccccc1 [Atomoxetine]
clinical scores / EAE symptoms [2]: no effect on clinical scores
clinical scores / EAE symptoms ([2]; listed as Axtomoxtine): limited benefit

N[C@H](C(=O)O)[C@H](O)c1ccc(O)c(O)c1 [L-DOPS, (−)-threo-3-(3,4-dihydroxyphenyl)-L-serine]
clinical scores in EAE mice ([3]; FIGS. 11A-11C): prevents the worsening of clinical scores
ill mice whose scores improved during treatment ([3]; L-DOPS group): 2 of the 4
incidence of disease during treatment ([3]; L-DOPS group after day 29, saline all 6 ill by day 36): did not further increase
mice ill on day 29 ([3]; L-DOPS group, first day of treatment): 4/6
average clinical score, day 38 ([3]; daily L-DOPS 200 mg/kg s.c. plus 125 mg/kg bensazeride i.p. from day 29, saline 2.3±0.2 on day 37): 1.2±0.4
average clinical score, day 29 ([3]; first day of L-DOPS 200 mg/kg s.c. plus 125 mg/kg bensazeride i.p., mean±se): 1.5±0.5
clinical scores / EAE symptoms [2]: Benefits to EAE were seen; also recorded: stabilized scores

NC[C@H](O)c1ccc(O)c(O)c1 [NA, noradrenaline]
NEP activity in cell culture [4]: increases NEP activity
BMP2 mRNA levels [5]: decreased
accumulation of fluorescently tagged Aβ1-42 (intracellular Aβ uptake) [1]: dose dependently increased
BMP4 mRNA levels ([6]; 30 μM NA, 24 hours): decreased
BMP4 mRNA levels ([6]; 100 μM NA, 24 hr): decreased
Aβ induced damage in primary neurons [7]: reduces Aβ induced damage
OPC maturation by Olig1, Olig2, GALc and CGT mRNA levels [8]: increases OPC maturation
OPC maturation, PDGFRa, O4 and PLP staining ([9]; 20 μM NA, 24 hours): accelerated OPC maturation
OPC maturation, PDGFa, O4 and PLP staining (figure legends) ([9]; 30 μM NA, 24 hours): induces more processes and greater a number of cells; also recorded: increased OPC maturation
OPC maturation, MBP staining ([9]; E13 oligospheres, 25 μM NA, 2 days): accelerated OPC maturation
Noggin protein expression (antibody staining) ([10]; NA-treated primary astrocytes): increased Noggin expression
Noggin mRNA levels ([10]; primary astrocytes, 30 μM NA, 24 hours): increased
